# From ChEMBL document CHEMBL4627253, “Relationship among structure, cytotoxicity, and Michael acceptor reactivity of quinocidin” (Bioorg Med Chem, 2020)
# System: HeLa S3
# Assay: Cytotoxicity against human HeLaS3 cells assessed as cell growth incubated for 48 hrs by MTT assay
# Type: functional, cell-based
# Conditions: HeLa S3, 48 h
row,SMILES,IC50 [nM]
1,CCCC/C=C(\C)c1c(C)cc(C)c2[n+]1CC(C)CC2 (stereo not drawn),360
2,CCCCCCc1c(C)cc(C)c2[n+]1CC(C)C=C2 (stereo not drawn),470
3,CCCC/C=C(\C)c1c(C)cc(C)c2[n+]1CC(C)C=C2 (stereo not drawn),640
4,CCCCCC/C=C/c1c(C)cc(C)c2[n+]1CC(C)C=C2 (stereo not drawn),170
5,CCCC/C=C/c1c(C)cc(C)c2[n+]1CC(C)C=C2 (stereo not drawn),370
6,CNC(=O)CCCCCc1c(C)cc(C)c2[n+]1CC(C)C=C2 (stereo not drawn),> 30000
7,CCCCCCCC/C=C/c1c(C)cc(C)c2[n+]1CC(C)C=C2 (stereo not drawn),51
8,CCCC/C=C(\C)c1c(C)cc(C)c[n+]1CCCC,720
9,CCCC/C=C(\C)c1nc(/C=C\C(C)C)c(C)cc1C,> 30000
10,CCCCCCCCCCCC/C=C/c1c(C)cc(C)c2[n+]1CC(C)C=C2 (stereo not drawn),38
11,CCCC/C=C(\C)c1c(C)cc(C)c2[n+]1CCC=C2,680
12,CCCCCCCCCC/C=C/c1c(C)cc(C)c2[n+]1CC(C)C=C2 (stereo not drawn),52
13,CCCCCCCCCCCCCC/C=C/c1c(C)cc(C)c2[n+]1CC(C)C=C2 (stereo not drawn),58
14,CCCC/C=C/c1c(C)cc(C)c2[n+]1CC(C)CC2 (stereo not drawn),580
15,CC/C=C/c1c(C)cc(C)c2[n+]1CC(C)C=C2 (stereo not drawn),2000

# System: HeLa S3
# Assay: Cytotoxicity against human HeLaS3 cells assessed as reduction in cell viability
# Type: functional, cell-based
# Conditions: not given
row,SMILES,IC50 [nM]
1,C1=Cc2cccc[n+]2CC1,> 30000

# System: HEK293
# Assay: Cytotoxicity against HEK293 cells assessed as cell growth incubated for 48 hrs by MTT assay
# Type: cell-based
# Conditions: Homo sapiens, HEK293, 48 h
row,SMILES,IC50 [nM]
1,CCCC/C=C(\C)c1c(C)cc(C)c2[n+]1CC(C)C=C2 (stereo not drawn),1700
2,CNC(=O)CCCCCc1c(C)cc(C)c2[n+]1CC(C)C=C2 (stereo not drawn),> 30000
